The values below come from PMC9706575 (Journal of Medicinal Chemistry, 2022).

The conditions of data set [1]: mouse, in vivo, iv.
Another data set concerns the target targefrin. The data set is described as follows: ITC; reverse titration: 200 μM protein in the syringe, 20 injections of 2.5 μL into 10 μM compound in the cell; 25 mM Tris pH 7.5, 150 mM NaCl, 1% DMSO, 25 °C. On the technique in general: Isothermal titration calorimetry measures the heat released or taken up as one component is titrated into another.

pKd: −log10 of the molar value.

Sequence of ephrin type-A receptor 2 ligand-binding domain (P29317 27-200): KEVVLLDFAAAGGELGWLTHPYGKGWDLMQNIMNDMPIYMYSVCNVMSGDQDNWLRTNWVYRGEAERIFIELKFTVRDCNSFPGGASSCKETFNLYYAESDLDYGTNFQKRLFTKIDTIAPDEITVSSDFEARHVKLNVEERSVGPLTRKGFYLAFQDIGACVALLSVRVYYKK

`CC(=O)O[C@H]1C(=O)[C@@]2(C)[C@H]([C@H](OC(=O)c3ccccc3)[C@]3(O)C[C@H](OC(=O)[C@H](O)[C@@H](NC(=O)c4ccccc4)c4ccccc4)C(C)=C1C3(C)C)[C@]1(OC(C)=O)CO[C@@H]1C[C@@H]2O` [PTX, paclitaxel]: in data set [1], the “Body weight (g), Friday” value is 22.11 g; the “Body weight (g), Thursday” value is recorded as 21.95 g; the “Body weight (g), Wednesday” value amounted to 21.85 g.

“ephrin type-A receptor 2 ligand-binding domain (from UniProt P29317 27-200) (domain or fragment)”: in the data set with targefrin, the negative logarithm of the Kd (pKd) was 7.66 and the dH is -20.2 kcal/mol.

As a reminder, the pKd is the negative decadic logarithm of the Kd, by convention in mol/L. A lower pKd goes with a large Kd.
